Reference: publication PMC12024912, “Druggability Studies of Benzene Sulfonamide Substituted Diarylamide (E3) as a Novel Diuretic” (Biomedicines, 2025)
Read-outs that look alike come from different tables or passages of the source.

How the values were obtained:
UT-B = target: T1, UT-B (Mus musculus, UniProt Q8VHL0); assay: Erythrocyte lysis assay for UT-B inhibition, mouse erythrocytes; format: cell-based
T1 construct: endogenous in cells; host or cells: erythrocytes from wild-type C57BL/6 mice
T1 sequence (Q8VHL0 1-384): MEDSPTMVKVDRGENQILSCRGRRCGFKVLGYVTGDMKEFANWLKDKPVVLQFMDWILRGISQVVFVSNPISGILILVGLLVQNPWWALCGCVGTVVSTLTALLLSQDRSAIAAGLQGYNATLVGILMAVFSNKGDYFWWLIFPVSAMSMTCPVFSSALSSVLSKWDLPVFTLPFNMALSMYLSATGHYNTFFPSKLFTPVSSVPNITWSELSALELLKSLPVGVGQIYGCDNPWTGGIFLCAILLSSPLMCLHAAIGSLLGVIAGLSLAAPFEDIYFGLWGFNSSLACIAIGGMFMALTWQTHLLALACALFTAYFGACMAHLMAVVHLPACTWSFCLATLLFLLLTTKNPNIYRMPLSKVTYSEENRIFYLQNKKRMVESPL
Protocol: The erythrocyte lysis assay was modified from a method described previously. Erythrocytes obtained from veins were diluted to a hematocrit value of 2% in hyperosmolar PBS containing 1.25 mol/L urea and 5 mmol/L glucose and incubated at r.t. for 2 h. Then, 99 μL erythrocyte suspension from a reservoir was added to each well of a 96-well round-bottom microplate, then 1 μL of the testing compound (500, 125, 31.25, 7.81, 1.95, 0.488, 0.122, 0.031, 0.0076 μmol/L dissolved in DMSO) was added to erythrocyte suspension and shook it up with microoscillator for 1 min. Following 5 min incubation, 20 μL erythrocyte suspension was transferred into 96-well black microplates preloaded with 180 μL isotonic PBS (10 mM, urea-free). Erythrocyte lysis was monitored at 710 nm optical density (OD710) for 6 min, with lysis rates calculated using control values from the same plate as Equation (1):Lysis (%) = 100 × (Aneg − Atest)/(Aneg − Apos)(1) where Atest is the absorbance value from the test well, Aneg is from a negative no-lysis control well, and Apos is from a positive full-lysis control.

[1] = Intestinal microbiota stability, mouse; format: in vitro ADME
Protocol: (§1) Plasma from mice, rats, rabbits, and humans was obtained from blood after centrifugation at 3000 r/min for 10 min. Simulated gastric fluid (SGF, pH = 1, containing pepsin) and simulated intestinal fluid (SIF, pH = 6.8, containing trypsin) were configured previously in the experiments. SD rats and mice were collected, and after removing the mucus layer from the small intestine and colon, 20 times the volume of liquid bacterial culture medium was added. An intestinal microbiota suspension was obtained after anaerobic cultivation on a shaking table at 37 °C for 12 h. In the aforementioned systems, E3 was added at a final concentration of 1 μmol/L at 37 °C for different incubation times (0, 10, 20, 30, 60, 120, and 240 min). In liver metabolic stability assays, E3 was incubated with liver microsomes or liver homogenate from mice or rats for 60 min at 37 °C. The stop solution, 5 ng/mL tolbutamide (internal standard, IS) in acetonitrile, was added to stop the metabolic process. Post-centrifugation (18,000× g, 10 min, 4 °C), supernatants were subjected to liquid chromatography–tandem mass spectrometry (LC–MS/MS). Analyte-to-IS peak area ratios quantified residual percentages via Equation (2):Remaining% = (E3peak area/ISpeak area at different time)/(E3peak area/ISpeak area at 0 min) × 100%.(2)

[2] = Stability in simulated gastric fluid (SGF) and simulated intestinal fluid (SIF); format: in vitro ADME; settings: 1 μmol/L; 37 °C; after 4 h
Protocol: as §1

mice = assay: Acute oral toxicity test in mice; format: in vivo
Protocol: (§2) The acute oral toxicity test was performed according to “Guidance on Single Dose Toxicity Study for Pharmaceuticals” (2014), “Guidance for industry: single dose acute toxicity testing for pharmaceuticals” (1996). The initial dose for preliminary trials was established at 5000 mg/kg. A total of three female and three male mice were utilized (one of each sex for preliminary experiments and two for subsequent experiments). Following a 12 h fasting period, one male and one female mouse were selected and administered E3. After 24 h of confirming survival and the absence of abnormal behavior, the remaining four animals were given the same dose. The control group was given solvent (0.5% CMC-Na). Observations of all animals on the day of dosing (d 0) and in the days following were recorded, including general conditions (signs of toxicity, onset of symptoms, recovery period), changes in body weight, and mortality. After 14 d, blood and vital organ tissues were collected, and serum biochemical indicators as well as histopathological examinations were conducted.

[3] = Acute oral toxicity test in mice; format: in vivo; settings: both sexes, mouse, in vivo, 5000 mg/kg; mice; oral; 14-day acute toxicity assay
Protocol: as §2

## CC(=O)c1ccc(C(=O)Nc2cccc(NS(=O)(=O)c3ccccc3)c2)o1 [Compound E3, 5-acetyl-N-(3-(phenylsulfonamido)phenyl)furan-2-carboxamide]
UT-B; erythrocyte lysis assay
  maximum inhibition rate, mouse cells: approximately 100%
UT-B; erythrocyte lysis model, mouse, n = 3, means, read-out: IC50 (μM) Mouse
  IC50: 0.05 µM
UT-B; red blood cell lysis assay, read-out: IC50 for UT-B-promoted urea transport, mice
  IC50: 0.0477 µM
[1]; colon microbiota suspension, n=3, read-out: Mouse colon microbiota (remaining %)
  remaining at 4 h, 1 μmol/L: 89.3%
[1]; small intestine microbiota suspension, n=3, read-out: Mouse small intestine microbiota (remaining %)
  remaining at 4 h, 1 μmol/L: 87.3%
[2]
  E3 remaining in SGF (pH 1.0) and SIF (pH 6.8): More than 90%
mice; female mice, 5g/kg, n=3
  Brain organ index: 1.72±0.10%
  Kidney organ index: 1.06±0.02%
  Liver organ index: 4.86±0.08%
  Lung organ index: 0.73±0.04%
  Ovary organ index: 0.11±0.02%
  Spleen organ index: 0.4±0.01%
  Thymus organ index: 0.27±0.06%
  Uterus organ index: 0.3±0.02%
mice; male mice, 5g/kg, n=3
  Brain organ index: 1.35±0.01%
  Epididymis organ index: 0.17±0.01%
  Kidney organ index: 1.26±0.02%
  Liver organ index: 5.16±0.12%
  Lung organ index: 0.72±0.02%
  Spleen organ index: 0.37±0.02%
  Testis organ index: 0.73±0.02%
  Thymus organ index: 0.25±0.01%
mice; mouse, in vivo, po, 5000 mg/kg
  H&E staining of heart, kidney, liver, spleen, and brain: no apparent abnormalities
  organ indexes: no significant difference
  representative blood biochemical indicators: not statistically altered
[3]
  LD50 at 14 d: > 5000 mg/kg
